Data from article PMC5218480 (PLoS ONE, 2017).

Tested on: MV-4-11 cells
Assay: Gene expression microarray analysis (Affymetrix PrimeView) and GSEA
Assay type: cell-based, human
Design: RFU PODN (11730768_x_at) / Fold change /veh PODN (11730768_x_at) / RFU LINC00158 (11744669_a_at) / Fold change /veh LINC00158 (11744669_a_at) / RFU DUSP10 (11751237_a_at) / Fold change /veh DUSP10 (11751237_a_at) / RFU ID3 (11757404_x_at) / Fold change /veh ID3 (11757404_x_at) / RFU PLEKHG5 (11737974_s_at) / Fold change /veh PLEKHG5 (11737974_s_at) / RFU LRRC4B (11730491_at) / Fold change /veh LRRC4B (11730491_at) / RFU GIMAP4 (11747438_a_at) / Fold change /veh GIMAP4 (11747438_a_at) / RFU KRT8 (11758183_x_at) / Fold change /veh KRT8 (11758183_x_at) / RFU CNN1 (11734310_a_at) / Fold change /veh CNN1 (11734310_a_at) / RFU VPS37D (11726825_at) / Fold change /veh VPS37D (11726825_at) / RFU C10orf10 (11716522_x_at) / Fold change /veh C10orf10 (11716522_x_at) / RFU KIR2DL2 /// KIR2DL4 /// KIR2DL5A /// KIR2DL5B /// KIR2DS1 /// KIR2DS2 /// KIR2DS3 /// KIR2DS4 /// KIR3DL3 /// KIR3DL3 /// KIR3DS1 (11738374_at) / Fold change /veh KIR2DL2 /// KIR2DL4 /// KIR2DL5A /// KIR2DL5B /// KIR2DS1 /// KIR2DS2 /// KIR2DS3 /// KIR2DS4 /// KIR3DL3 /// KIR3DL3 /// KIR3DS1 (11738374_at) / RFU C1QL1 (11718748_at) / Fold change /veh C1QL1 (11718748_at) / RFU TMPRSS4 (11747572_a_at) / Fold change /veh TMPRSS4 (11747572_a_at) / RFU HAMP (11756126_x_at) / Fold change /veh HAMP (11756126_x_at) / RFU RNFT2 (11725882_a_at) / Fold change /veh RNFT2 (11725882_a_at) / RFU NR4A2 (11747474_a_at) / Fold change /veh NR4A2 (11747474_a_at) / RFU ABCC12 (11746883_a_at) / Fold change /veh ABCC12 (11746883_a_at) / RFU TMEM136 (11760407_x_at) / Fold change /veh TMEM136 (11760407_x_at) / RFU CLDN22 /// WWC2 (11732394_at) / Fold change /veh CLDN22 /// WWC2 (11732394_at) / RFU HLA-DPB1 (11760878_x_at) / Fold change /veh HLA-DPB1 (11760878_x_at) / RFU SPINT1 (11716480_a_at) / Fold change /veh SPINT1 (11716480_a_at) / RFU GAP43 (11754022_s_at) / Fold change /veh GAP43 (11754022_s_at) / RFU A4GNT (11735810_at) / Fold change /veh A4GNT (11735810_at) / RFU PRB3 (11715151_x_at) / Fold change /veh PRB3 (11715151_x_at) / RFU TUBB4B (11761932_at) / Fold change /veh TUBB4B (11761932_at) / RFU CAPN14 (11732068_a_at) / Fold change /veh CAPN14 (11732068_a_at) / RFU TMCC2 (11721928_a_at) / Fold change /veh TMCC2 (11721928_a_at) / RFU IRGQ (11745062_a_at) / Fold change /veh IRGQ (11745062_a_at) / RFU FAM174B (11720279_a_at) / Fold change /veh FAM174B (11720279_a_at) / RFU TMPRSS4 (11748680_a_at) / Fold change /veh TMPRSS4 (11748680_a_at) / RFU FAM212B (11763350_a_at) / Fold change /veh FAM212B (11763350_a_at) / RFU PLEKHG5 (11743358_a_at) / Fold change /veh PLEKHG5 (11743358_a_at) / RFU ZSCAN30 (11745921_a_at) / Fold change /veh ZSCAN30 (11745921_a_at) / RFU CMKLR1 (11741424_a_at) / Fold change /veh CMKLR1 (11741424_a_at) / RFU LOC101060620 /// MAPK8IP1 (11723275_at) / Fold change /veh LOC101060620 /// MAPK8IP1 (11723275_at) / RFU SPTSSB (11747773_x_at) / Fold change /veh SPTSSB (11747773_x_at) / RFU PRSS12 (11739890_at) / Fold change /veh PRSS12 (11739890_at) / RFU BIN1 (11741810_x_at) / Fold change /veh BIN1 (11741810_x_at) / RFU WNT11 (11732464_a_at) / Fold change /veh WNT11 (11732464_a_at) / RFU C10orf10 (11716521_a_at) / Fold change /veh C10orf10 (11716521_a_at) / RFU C5orf56 (11738089_at) / Fold change /veh C5orf56 (11738089_at) / RFU CYB561 (11721691_x_at) / Fold change /veh CYB561 (11721691_x_at) / RFU ANKRD19P (11752326_a_at) / Fold change /veh ANKRD19P (11752326_a_at) / RFU OR2T12 /// OR2T33 /// OR2T8 (11738714_s_at) / Fold change /veh OR2T12 /// OR2T33 /// OR2T8 (11738714_s_at) / RFU VCAN (11748164_a_at) / Fold change /veh VCAN (11748164_a_at) / RFU JSRP1 (11732532_at) / Fold change /veh JSRP1 (11732532_at) / RFU KRTAP10-11 (11738290_x_at) / Fold change /veh KRTAP10-11 (11738290_x_at) / RFU MYO3A (11730013_a_at) / Fold change /veh MYO3A (11730013_a_at) / RFU EBF3 (11725865_a_at) / Fold change /veh EBF3 (11725865_a_at) / RFU CAMK2N1 (11719241_x_at) / Fold change /veh CAMK2N1 (11719241_x_at) / RFU C5orf56 (11738088_a_at) / Fold change /veh C5orf56 (11738088_a_at) / RFU OLFML3 (11715873_a_at) / Fold change /veh OLFML3 (11715873_a_at) / RFU LOC100653217 /// NTM (11731650_a_at) / Fold change /veh LOC100653217 /// NTM (11731650_a_at) / RFU MAPK11 (11762145_a_at) / Fold change /veh MAPK11 (11762145_a_at) / RFU FIZ1 (11724087_x_at) / Fold change /veh FIZ1 (11724087_x_at) / RFU OASL (11726364_x_at) / Fold change /veh OASL (11726364_x_at) / RFU SOX15 (11748057_x_at) / Fold change /veh SOX15 (11748057_x_at) / RFU CD79A (11719716_a_at) / Fold change /veh CD79A (11719716_a_at) / RFU HIST1H1D (11736915_at) / Fold change /veh HIST1H1D (11736915_at) / RFU CASKIN2 (11723855_a_at) / Fold change /veh CASKIN2 (11723855_a_at) / RFU LOC730098 (11760151_x_at) / Fold change /veh LOC730098 (11760151_x_at) / RFU OR4N2 (11742367_at) / Fold change /veh OR4N2 (11742367_at) / RFU PRRT2 (11749266_a_at) / Fold change /veh PRRT2 (11749266_a_at) / RFU SNX32 (11753110_a_at) / Fold change /veh SNX32 (11753110_a_at) / RFU CDHR5 (11726645_a_at) / Fold change /veh CDHR5 (11726645_a_at) / RFU RCAN1 (11760418_a_at) / Fold change /veh RCAN1 (11760418_a_at) / RFU FAM167A (11723789_a_at) / Fold change /veh FAM167A (11723789_a_at) / RFU FAM26E (11764081_at) / Fold change /veh FAM26E (11764081_at) / RFU ISYNA1 (11749810_s_at) / Fold change /veh ISYNA1 (11749810_s_at) / RFU ACY1 (11761880_at) / Fold change /veh ACY1 (11761880_at) / RFU 11764098_at / Fold change /veh 11764098_at / RFU SAMD14 (11745864_x_at) / Fold change /veh SAMD14 (11745864_x_at) / RFU NPB (11741838_a_at) / Fold change /veh NPB (11741838_a_at) / RFU TMPRSS6 (11731388_a_at) / Fold change /veh TMPRSS6 (11731388_a_at) / RFU KRTAP10-2 (11738614_at) / Fold change /veh KRTAP10-2 (11738614_at) / RFU ARHGAP8 /// PRR5-ARHGAP8 (11727945_x_at) / Fold change /veh ARHGAP8 /// PRR5-ARHGAP8 (11727945_x_at) / RFU KRTAP5-7 /// NADSYN1 (11734609_at) / Fold change /veh KRTAP5-7 /// NADSYN1 (11734609_at) / RFU RASL12 (11751679_a_at) / Fold change /veh RASL12 (11751679_a_at) / RFU CDKN2B (11736163_a_at) / Fold change /veh CDKN2B (11736163_a_at) / RFU PRF1 (11729649_at) / Fold change /veh PRF1 (11729649_at) / RFU, ZNF638 /// ZNF638-IT1 / Fold change vs veh, ZNF638 /// ZNF638-IT1 / RFU, PANK3 / Fold change vs veh, PANK3 / RFU, SH3YL1 / Fold change vs veh, SH3YL1 / RFU, ZEB2 / Fold change vs veh, ZEB2 / RFU, NRIP1 / Fold change vs veh, NRIP1 / RFU, PTTG1IP / Fold change vs veh, PTTG1IP / RFU, CAPN2 / Fold change vs veh, CAPN2 / RFU, MED14 / Fold change vs veh, MED14 / RFU, SNORA58 / Fold change vs veh, SNORA58 / RFU, C1orf63 / Fold change vs veh, C1orf63 / RFU, LRRFIP1 / Fold change vs veh, LRRFIP1 / RFU, NDUFAF7 / Fold change vs veh, NDUFAF7 / RFU, SLC12A2 / Fold change vs veh, SLC12A2 / RFU, IBTK / Fold change vs veh, IBTK / RFU, ESF1 / Fold change vs veh, ESF1 / Fold change vs veh, TMEM50B / RFU, TAOK1 / Fold change vs veh, TAOK1 / RFU, ACBD3 / Fold change vs veh, ACBD3 / RFU, TMA16 / Fold change vs veh, TMA16 / RFU, RWDD3 / Fold change vs veh, RWDD3 / RFU, BCAT1 / Fold change vs veh, BCAT1 / RFU, EDEM3 / Fold change vs veh, EDEM3 / RFU, TMEM33 / Fold change vs veh, TMEM33 / RFU, WDR75 / Fold change vs veh, WDR75 / RFU, AHCTF1 / Fold change vs veh, AHCTF1 / RFU, TFRC / Fold change vs veh, TFRC / RFU, ZDHHC17 / Fold change vs veh, ZDHHC17 / RFU, NOM1 / Fold change vs veh, NOM1 / RFU, ARL8B / Fold change vs veh, ARL8B / RFU, ZBTB11 / Fold change vs veh, ZBTB11 / RFU, TAMM41 / Fold change vs veh, TAMM41 / RFU, KIAA1704 /// LOC100996395 / Fold change vs veh, KIAA1704 /// LOC100996395 / RFU, ING1 / Fold change vs veh, ING1 / RFU, TRMT61B / Fold change vs veh, TRMT61B / RFU, FUBP3 / Fold change vs veh, FUBP3 / RFU, TP53 / Fold change vs veh, TP53 / RFU, TNKS2 / Fold change vs veh, TNKS2 / RFU, ZFP14 / Fold change vs veh, ZFP14 / RFU, ACTR2 / Fold change vs veh, ACTR2 / RFU, PPP3R1 / Fold change vs veh, PPP3R1 / RFU, PIK3R1 / Fold change vs veh, PIK3R1 / RFU, HNRNPA1 / Fold change vs veh, HNRNPA1 / RFU, RNF170 / Fold change vs veh, RNF170 / RFU, ZNF28 / Fold change vs veh, ZNF28 / RFU, RNGTT / Fold change vs veh, RNGTT / RFU, OGT / Fold change vs veh, OGT / RFU, BRD1 / Fold change vs veh, BRD1 / RFU, MARS / Fold change vs veh, MARS / RFU, ZNF655 / Fold change vs veh, ZNF655 / RFU, FAHD1 / Fold change vs veh, FAHD1 / RFU, BDP1 / Fold change vs veh, BDP1 / RFU, LRRCC1 / Fold change vs veh, LRRCC1 / RFU, ARID1A / Fold change vs veh, ARID1A / RFU, ZNF146 / Fold change vs veh, ZNF146 / RFU, ZNF330 / Fold change vs veh, ZNF330 / RFU, GPN3 / Fold change vs veh, GPN3 / RFU, C9orf123 / Fold change vs veh, C9orf123 / RFU, N4BP2L2 / Fold change vs veh, N4BP2L2 / RFU, ARFIP1 / Fold change vs veh, ARFIP1 / RFU, FAM179B / Fold change vs veh, FAM179B / RFU, BCL10 / Fold change vs veh, BCL10 / RFU, UHRF1BP1L / Fold change vs veh, UHRF1BP1L / RFU, BET1 / Fold change vs veh, BET1 / RFU, CNOT2 / Fold change vs veh, CNOT2 / RFU, ZNF268 / Fold change vs veh, ZNF268 / Fold change vs veh, ZNF507 / RFU, DGCR2 / Fold change vs veh, DGCR2 / RFU, WDSUB1 / Fold change vs veh, WDSUB1 / Fold change vs veh, HSP90B1 /// MIR3652 / RFU, ADSS / Fold change vs veh, ADSS / RFU, GK / Fold change vs veh, GK / RFU, ZNF148 / Fold change vs veh, ZNF148 / RFU, TAF9 / Fold change vs veh, TAF9 / RFU, SLC1A5 / Fold change vs veh, SLC1A5 / RFU, SLMO2 / Fold change vs veh, SLMO2 / RFU, ABCC4 / Fold change vs veh, ABCC4 / RFU, LOC101060439 /// RAP1B / Fold change vs veh, LOC101060439 /// RAP1B / RFU, RFX7 / Fold change vs veh, RFX7 / RFU, GTPBP10 / Fold change vs veh, GTPBP10 / RFU, CNEP1R1 / Fold change vs veh, CNEP1R1 / RFU, BIVM-ERCC5 /// ERCC5 / Fold change vs veh, BIVM-ERCC5 /// ERCC5 / RFU, ILF3 / Fold change vs veh, ILF3 / RFU 11762660_at / Fold change /veh 11762660_at / RFU VCAN (11757783_s_at) / Fold change /veh VCAN (11757783_s_at) / RFU DDX43 (11728927_at) / Fold change /veh DDX43 (11728927_at) / RFU KRT8 (11758188_x_at) / Fold change /veh KRT8 (11758188_x_at) / RFU NKD1 (11759106_at) / Fold change /veh NKD1 (11759106_at) / RFU SRD5A1 (11742802_a_at) / Fold change /veh SRD5A1 (11742802_a_at) / RFU TPSAB1 /// TPSB2 (11721975_s_at) / Fold change /veh TPSAB1 /// TPSB2 (11721975_s_at) / RFU GSTM3 (11746129_a_at) / Fold change /veh GSTM3 (11746129_a_at) / RFU IL23R (11737362_x_at) / Fold change /veh IL23R (11737362_x_at) / RFU TMEM51 (11727254_a_at) / Fold change /veh TMEM51 (11727254_a_at) / RFU PIWIL2 (11732686_x_at) / Fold change /veh PIWIL2 (11732686_x_at) / RFU ORM1 (11744905_x_at) / Fold change /veh ORM1 (11744905_x_at) / RFU CCDC152 (11743942_at) / Fold change /veh CCDC152 (11743942_at) / RFU ECM1 (11717891_a_at) / Fold change /veh ECM1 (11717891_a_at) / RFU IL23R (11748794_a_at) / Fold change /veh IL23R (11748794_a_at) / RFU TNFAIP8L3 (11732012_x_at) / Fold change /veh TNFAIP8L3 (11732012_x_at) / RFU MBOAT4 (11741988_at) / Fold change /veh MBOAT4 (11741988_at) / RFU 11764193_at / Fold change /veh 11764193_at / RFU TMEM53 (11763286_at) / Fold change /veh TMEM53 (11763286_at) / RFU MAGEB2 (11727129_at) / Fold change /veh MAGEB2 (11727129_at) / RFU TMEM200A (11744735_a_at) / Fold change /veh TMEM200A (11744735_a_at) / RFU CCDC152 (11751479_a_at) / Fold change /veh CCDC152 (11751479_a_at) / RFU FAM211A (11726209_a_at) / Fold change /veh FAM211A (11726209_a_at) / RFU RGS16 (11746705_a_at) / Fold change /veh RGS16 (11746705_a_at) / RFU VCAN (11755009_s_at) / Fold change /veh VCAN (11755009_s_at) / RFU RHOB (11743442_s_at) / Fold change /veh RHOB (11743442_s_at) / RFU RGS16 (11720943_a_at) / Fold change /veh RGS16 (11720943_a_at) / RFU RGS16 (11720944_at) / Fold change /veh RGS16 (11720944_at) / RFU, VPS4B / Fold change vs veh, VPS4B / RFU, CREB1 / Fold change vs veh, CREB1 / RFU, DNAJC13 / Fold change vs veh, DNAJC13 / RFU, GNAQ / Fold change vs veh, GNAQ / RFU, CDK5R1 / Fold change vs veh, CDK5R1 / RFU, ZRANB3 / Fold change vs veh, ZRANB3 / RFU, CUL4A / Fold change vs veh, CUL4A / RFU, CCNY / Fold change vs veh, CCNY / RFU, UFL1 / Fold change vs veh, UFL1 / RFU, COG3 / Fold change vs veh, COG3 / RFU, DIAPH2 / Fold change vs veh, DIAPH2 / RFU, SKA2 / Fold change vs veh, SKA2 / RFU, AFF3 / Fold change vs veh, AFF3 / RFU, LMF1 / Fold change vs veh, LMF1 / RFU, IPO11 / Fold change vs veh, IPO11 / RFU, DFFB / Fold change vs veh, DFFB / RFU, FOXP1 / Fold change vs veh, FOXP1 / RFU, CARD8 / Fold change vs veh, CARD8 / RFU, STRN3 / Fold change vs veh, STRN3 / RFU, ADK / Fold change vs veh, ADK / RFU, RASSF2 / Fold change vs veh, RASSF2 / RFU, WIPF1 / Fold change vs veh, WIPF1 / RFU, LARP1B / Fold change vs veh, LARP1B / RFU, RASA1 / Fold change vs veh, RASA1 / RFU, RB1 / Fold change vs veh, RB1 / RFU, PPFIA1 / Fold change vs veh, PPFIA1 / RFU, MAT2A / Fold change vs veh, MAT2A / RFU, CCT5 / Fold change vs veh, CCT5 / RFU, WDR92 / Fold change vs veh, WDR92 / RFU, CUX1 / Fold change vs veh, CUX1 / RFU, TTC7A / Fold change vs veh, TTC7A / RFU, TMEM135 / Fold change vs veh, TMEM135 / RFU, DEPTOR / Fold change vs veh, DEPTOR / RFU, CPM / Fold change vs veh, CPM / RFU, DNAJB6 / Fold change vs veh, DNAJB6 / RFU, CACNA2D3 / Fold change vs veh, CACNA2D3 / RFU, DTX4 / Fold change vs veh, DTX4 / RFU, TFCP2 / Fold change vs veh, TFCP2 / RFU, GMCL1 /// GMCL1P1 / Fold change vs veh, GMCL1 /// GMCL1P1 / RFU, AEBP2 / Fold change vs veh, AEBP2 / RFU, SNHG1 /// SNORD22 /// SNORD25 /// SNORD26 /// SNORD27 /// SNORD28 /// SNORD29 /// SNORD31 / Fold change vs veh, SNHG1 /// SNORD22 /// SNORD25 /// SNORD26 /// SNORD27 /// SNORD28 /// SNORD29 /// SNORD31 / Fold change (Aza/veh), C12orf56 (ProbeSet 11735607_a_at) / Fold change (ACY-1035/veh), C12orf56 (ProbeSet 11735607_a_at) / Fold change (Aza/veh), FGFR1OP (ProbeSet 11751329_s_at) / Fold change (ACY-1035/veh), FGFR1OP (ProbeSet 11751329_s_at) / Fold change (Aza/veh), VPS36 (ProbeSet 11739960_a_at) / Fold change (ACY-1035/veh), VPS36 (ProbeSet 11739960_a_at) / RFU SYPL1 (11715823_x_at) / Fold change /veh SYPL1 (11715823_x_at) / RFU IGFBP7 (11715501_s_at) / Fold change /veh IGFBP7 (11715501_s_at) / RFU REEP3 (11722064_at) / Fold change /veh REEP3 (11722064_at) / RFU IGLL1 (11728026_x_at) / Fold change /veh IGLL1 (11728026_x_at): dose or concentration left out as unconfirmed
Details: ProbeSet 11734782_x_at; LIST D

Structure (SMILES): Nc1ncn([C@@H]2O[C@H](CO)[C@@H](O)[C@H]2O)c(=O)n1 [azacitidine]
- RFU, WDR92: 49.30 RFU
